Source: PubChem BioAssay (NCI)
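Cultured in 96-well plates, cells were exposed to test compound for 48 hours across five concentrations. Abbreviation: GI50, concentration required for 50% inhibition of growth. TGI: concentration producing complete growth inhibition.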

Key:
Assay in all cases: inhibition of tumour cell growth, NCI panel, 48 h
LXFL 529 NSCLC = tested on: LXFL 529 NSCLC
HT29 colon = tested on: HT29 colon
TK-10 renal = tested on: TK-10 renal
SNB-19 CNS = tested on: SNB-19 CNS
CCRF-CEM leukemia = tested on: CCRF-CEM leukemia
K-562 leukemia = tested on: K-562 leukemia
M19-MEL melanoma = tested on: M19-MEL melanoma
COLO 205 colon = tested on: COLO 205 colon
UACC-257 melanoma = tested on: UACC-257 melanoma
SNB-75 CNS = tested on: SNB-75 CNS
NCI-H522 lung = tested on: NCI-H522 lung
RXF 393 renal = tested on: RXF 393 renal
A549 NSCLC = tested on: A549 NSCLC
SF-295 CNS = tested on: SF-295 CNS
HL-60(TB) leukemia = tested on: HL-60(TB) leukemia
HOP-62 NSCLC = tested on: HOP-62 NSCLC
SR leukemia = tested on: SR leukemia
M14 melanoma = tested on: M14 melanoma
HCT-116 colon = tested on: HCT-116 colon
UO-31 renal = tested on: UO-31 renal
OVCAR-8 ovarian = tested on: OVCAR-8 ovarian
DLD-1 colon = tested on: DLD-1 colon
CAKI-1 renal = tested on: CAKI-1 renal
MALME-3M melanoma = tested on: MALME-3M melanoma
IGROV1 ovarian = tested on: IGROV1 ovarian
SK-MEL-28 melanoma = tested on: SK-MEL-28 melanoma
HCT-15 colon = tested on: HCT-15 colon
786-0 renal = tested on: 786-0 renal
NCI-H23 lung = tested on: NCI-H23 lung
SF-539 CNS = tested on: SF-539 CNS
SK-MEL-5 melanoma = tested on: SK-MEL-5 melanoma
SK-OV-3 ovarian = tested on: SK-OV-3 ovarian
LOX IMVI melanoma = tested on: LOX IMVI melanoma
ACHN renal = tested on: ACHN renal
MOLT-4 leukemia = tested on: MOLT-4 leukemia
SNB-78 CNS = tested on: SNB-78 CNS
HOP-18 NSCLC = tested on: HOP-18 NSCLC
SW-620 colon = tested on: SW-620 colon
SK-MEL-2 melanoma = tested on: SK-MEL-2 melanoma
KM20L2 colon = tested on: KM20L2 colon
SN12C renal = tested on: SN12C renal
RPMI-8226 leukemia = tested on: RPMI-8226 leukemia
NCI-H226 lung = tested on: NCI-H226 lung
OVCAR-3 ovarian = tested on: OVCAR-3 ovarian
NCI-H460 lung = tested on: NCI-H460 lung
KM12 colon = tested on: KM12 colon
SF-268 CNS = tested on: SF-268 CNS
OVCAR-5 ovarian = tested on: OVCAR-5 ovarian
U251 CNS = tested on: U251 CNS
UACC-62 melanoma = tested on: UACC-62 melanoma
HOP-92 NSCLC = tested on: HOP-92 NSCLC
DMS 273 small cell lung = tested on: DMS 273 small cell lung
OVCAR-4 ovarian = tested on: OVCAR-4 ovarian
HCC-2998 colon = tested on: HCC-2998 colon
A498 renal = tested on: A498 renal
EKVX NSCLC = tested on: EKVX NSCLC

Question: How did the TGI (LXFL 529 NSCLC) turn out when `O=C(c1ccc(Cl)cc1)N(C(=S)N1CCN(c2ccccc2)CC1)c1ccccc1` was run?
Answer: > 100 µM

Question: What about the TGI (HT29 colon) of the same compound?
Answer: > 100 µM

Question: What about the TGI (TK-10 renal) of the same compound?
Answer: > 100 µM

Question: And the TGI (SNB-19 CNS)?
Answer: > 100 µM

Question: And the TGI (CCRF-CEM leukemia)?
Answer: > 100 µM

Question: What about the TGI (K-562 leukemia) of the same compound?
Answer: > 100 µM

Question: And the TGI (M19-MEL melanoma)?
Answer: > 100 µM

Question: And the TGI (COLO 205 colon)?
Answer: > 100 µM

Question: And the TGI (UACC-257 melanoma)?
Answer: > 100 µM

Question: What about the TGI (SNB-75 CNS) of the same compound?
Answer: > 100 µM

Question: What about the TGI (NCI-H522 lung) of the same compound?
Answer: > 100 µM

Question: And the TGI (RXF 393 renal)?
Answer: > 100 µM

Question: What about the TGI (A549 NSCLC) of the same compound?
Answer: > 100 µM

Question: And the TGI (SF-295 CNS)?
Answer: > 100 µM

Question: What about the TGI (HL-60(TB) leukemia) of the same compound?
Answer: > 100000 nM

Question: And the TGI (HOP-62 NSCLC)?
Answer: > 100 µM

Question: What about the TGI (SR leukemia) of the same compound?
Answer: > 100 µM

Question: What about the TGI (M14 melanoma) of the same compound?
Answer: > 100 µM

Question: What about the TGI (HCT-116 colon) of the same compound?
Answer: > 100 µM

Question: What about the TGI (UO-31 renal) of the same compound?
Answer: > 100 µM

Question: And the TGI (OVCAR-8 ovarian)?
Answer: > 100 µM

Question: What about the TGI (DLD-1 colon) of the same compound?
Answer: > 100 µM

Question: And the TGI (CAKI-1 renal)?
Answer: > 100 µM

Question: And the TGI (MALME-3M melanoma)?
Answer: > 100 µM

Question: And the TGI (IGROV1 ovarian)?
Answer: > 100 µM

Question: And the TGI (SK-MEL-28 melanoma)?
Answer: > 100 µM

Question: And the TGI (HCT-15 colon)?
Answer: > 100 µM

Question: And the TGI (786-0 renal)?
Answer: > 100 µM

Question: And the TGI (NCI-H23 lung)?
Answer: > 100 µM

Question: And the TGI (SF-539 CNS)?
Answer: > 100 µM

Question: What about the TGI (SK-MEL-5 melanoma) of the same compound?
Answer: > 100 µM

Question: And the TGI (SK-OV-3 ovarian)?
Answer: > 100 µM

Question: And the TGI (LOX IMVI melanoma)?
Answer: > 100 µM

Question: What about the TGI (ACHN renal) of the same compound?
Answer: > 100 µM

Question: And the TGI (MOLT-4 leukemia)?
Answer: > 100 µM

Question: What about the TGI (SNB-78 CNS) of the same compound?
Answer: > 100 µM

Question: What about the TGI (HOP-18 NSCLC) of the same compound?
Answer: > 100 µM

Question: And the TGI (SW-620 colon)?
Answer: > 100 µM

Question: What about the TGI (SK-MEL-2 melanoma) of the same compound?
Answer: > 100 µM

Question: And the TGI (KM20L2 colon)?
Answer: > 100 µM

Question: What about the TGI (SN12C renal) of the same compound?
Answer: > 100 µM

Question: And the TGI (RPMI-8226 leukemia)?
Answer: > 100 µM

Question: What about the TGI (NCI-H226 lung) of the same compound?
Answer: > 100 µM

Question: What about the TGI (OVCAR-3 ovarian) of the same compound?
Answer: > 100000 nM

Question: What about the TGI (NCI-H460 lung) of the same compound?
Answer: > 100 µM

Question: What about the TGI (KM12 colon) of the same compound?
Answer: > 100 µM

Question: And the TGI (SF-268 CNS)?
Answer: > 100 µM

Question: And the TGI (OVCAR-5 ovarian)?
Answer: > 100 µM

Question: And the TGI (U251 CNS)?
Answer: > 100 µM

Question: What about the TGI (UACC-62 melanoma) of the same compound?
Answer: > 100 µM

Question: What about the TGI (HOP-92 NSCLC) of the same compound?
Answer: > 100 µM

Question: And the TGI (DMS 273 small cell lung)?
Answer: > 100 µM

Question: And the TGI (OVCAR-4 ovarian)?
Answer: > 100 µM

Question: How did the TGI (HT29 colon) turn out when `O=C(N/N=C/c1cc(Br)cc(Br)c1[O-])c1ccccc1O.O=C(N/N=C/c1cc(Br)cc(Br)c1[O-])c1ccccc1O.[Mn+2]` was run?
Answer: 22.3 µM

Question: What about the TGI (TK-10 renal) of the same compound?
Answer: 31 µM

Question: What about the TGI (SNB-19 CNS) of the same compound?
Answer: 36 µM

Question: And the GI50 (CCRF-CEM leukemia)?
Answer: 263 nM

Question: And the TGI (CCRF-CEM leukemia)?
Answer: 6.42 µM

Question: What about the GI50 (K-562 leukemia) of the same compound?
Answer: 1660 nM

Question: And the TGI (K-562 leukemia)?
Answer: 12.1 µM

Question: What about the TGI (COLO 205 colon) of the same compound?
Answer: 13.2 µM

Question: And the TGI (UACC-257 melanoma)?
Answer: 21 µM

Question: And the TGI (SNB-75 CNS)?
Answer: 15.5 µM

Question: What about the TGI (RXF 393 renal) of the same compound?
Answer: 28.4 µM

Question: What about the TGI (A549 NSCLC) of the same compound?
Answer: 25.5 µM

Question: What about the TGI (SF-295 CNS) of the same compound?
Answer: 13.7 µM

Question: What about the TGI (HL-60(TB) leukemia) of the same compound?
Answer: 2810 nM

Question: And the TGI (HOP-62 NSCLC)?
Answer: 25.9 µM

Question: And the TGI (M14 melanoma)?
Answer: 3.48 µM

Question: And the TGI (HCT-116 colon)?
Answer: 7.36 µM

Question: What about the TGI (UO-31 renal) of the same compound?
Answer: 24.2 µM

Question: What about the TGI (OVCAR-8 ovarian) of the same compound?
Answer: 14.3 µM

Question: And the TGI (CAKI-1 renal)?
Answer: 11.9 µM

Question: What about the TGI (MALME-3M melanoma) of the same compound?
Answer: 16.6 µM

Question: And the TGI (IGROV1 ovarian)?
Answer: 22.7 µM

Question: What about the TGI (SK-MEL-28 melanoma) of the same compound?
Answer: 13.8 µM

Question: What about the TGI (HCT-15 colon) of the same compound?
Answer: 19.9 µM

Question: And the TGI (HCC-2998 colon)?
Answer: 25.9 µM

Question: What about the GI50 (786-0 renal) of the same compound?
Answer: 887 nM

Question: What about the TGI (786-0 renal) of the same compound?
Answer: 15.9 µM

Question: And the TGI (SF-539 CNS)?
Answer: 5.56 µM

Question: What about the GI50 (A498 renal) of the same compound?
Answer: 12.8 µM

Question: What about the TGI (A498 renal) of the same compound?
Answer: 50.1 µM

Question: What about the TGI (SK-MEL-5 melanoma) of the same compound?
Answer: 19.2 µM

Question: What about the TGI (SK-OV-3 ovarian) of the same compound?
Answer: 33.8 µM

Question: What about the TGI (EKVX NSCLC) of the same compound?
Answer: 34.6 µM

Question: What about the TGI (ACHN renal) of the same compound?
Answer: 15.1 µM

Question: What about the TGI (MOLT-4 leukemia) of the same compound?
Answer: 7.94 µM

Question: What about the TGI (SW-620 colon) of the same compound?
Answer: 24.1 µM

Question: What about the TGI (SK-MEL-2 melanoma) of the same compound?
Answer: 22.3 µM

Question: What about the TGI (KM20L2 colon) of the same compound?
Answer: 21.3 µM

Question: And the GI50 (SN12C renal)?
Answer: 1560 nM

Question: What about the TGI (SN12C renal) of the same compound?
Answer: 16.5 µM

Question: And the GI50 (RPMI-8226 leukemia)?
Answer: 1030 nM

Question: And the TGI (RPMI-8226 leukemia)?
Answer: 14.8 µM

Question: What about the TGI (NCI-H226 lung) of the same compound?
Answer: 11 µM

Question: And the TGI (OVCAR-3 ovarian)?
Answer: 1660 nM

Question: What about the TGI (NCI-H460 lung) of the same compound?
Answer: 13.9 µM

Question: And the TGI (KM12 colon)?
Answer: 22.9 µM

Question: And the TGI (SF-268 CNS)?
Answer: 10.6 µM

Question: What about the TGI (OVCAR-5 ovarian) of the same compound?
Answer: 16.4 µM

Question: What about the TGI (U251 CNS) of the same compound?
Answer: 14.8 µM

Question: And the TGI (UACC-62 melanoma)?
Answer: 17.2 µM

Question: What about the TGI (HOP-92 NSCLC) of the same compound?
Answer: 14.9 µM

Question: And the TGI (OVCAR-4 ovarian)?
Answer: 17.5 µM
